Laboratory results reported in publication PMC12655637, “Design, Synthesis, and Mechanistic Study of Novel Ciprofloxacin/Thiazole Chalcone Hybrids as Potential Anticancer Agents” (Pharmaceuticals, 2025).
Where “and” joins values, the source holds several entries; their conditions need not be identical. Equal values may be shown once.

Legend:
Topoisomerase I = molecular target: T1, Topoisomerase I (Homo sapiens, UniProt P11387); assay: Topoisomerase I inhibition assay (ELISA kit of human DNA topoisomerase); details: for TOPO I fld (fold of control): HCT116, control = 1; for Topoisomerase I % Inhibition: in comparison to negative control
T1 sequence (P11387 1-765): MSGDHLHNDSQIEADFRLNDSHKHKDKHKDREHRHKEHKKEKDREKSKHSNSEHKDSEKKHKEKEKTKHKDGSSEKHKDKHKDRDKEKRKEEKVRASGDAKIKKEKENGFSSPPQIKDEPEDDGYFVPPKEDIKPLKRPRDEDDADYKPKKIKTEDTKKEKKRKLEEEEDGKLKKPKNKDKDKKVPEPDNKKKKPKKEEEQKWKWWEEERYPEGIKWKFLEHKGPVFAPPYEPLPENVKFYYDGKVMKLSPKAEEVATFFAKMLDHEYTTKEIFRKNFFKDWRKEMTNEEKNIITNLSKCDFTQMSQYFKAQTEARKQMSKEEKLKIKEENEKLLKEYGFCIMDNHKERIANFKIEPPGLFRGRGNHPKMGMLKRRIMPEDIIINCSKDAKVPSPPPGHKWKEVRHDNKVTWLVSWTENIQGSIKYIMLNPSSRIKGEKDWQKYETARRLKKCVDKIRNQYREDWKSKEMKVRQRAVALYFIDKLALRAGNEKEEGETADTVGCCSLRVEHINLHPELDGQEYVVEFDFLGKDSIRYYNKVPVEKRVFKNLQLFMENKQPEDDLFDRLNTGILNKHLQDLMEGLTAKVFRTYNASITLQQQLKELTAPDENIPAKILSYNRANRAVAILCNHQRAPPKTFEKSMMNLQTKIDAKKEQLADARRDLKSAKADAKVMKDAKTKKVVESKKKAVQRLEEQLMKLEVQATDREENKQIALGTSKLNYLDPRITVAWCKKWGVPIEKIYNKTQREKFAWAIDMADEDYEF
Experimental: The assay was performed using a commercially available Topoisomerase I Drug Screening Kit (TopoGen, Inc., Cat. # TG1015-1, Buena Vista, CO, USA) according to the manufacturer’s instructions, with minor modifications.
Evaluation of Topoisomerase I/II inhibition
Two folds of serial dilution was accomplished after standards and the tested compounds were dissolved in sample diluent.
Horseradish peroxidase (HRP-avidin) and biotin-conjugated antibody were diluted 10 times each.
Each well received 100 μL of each concentration of the standard or test chemicals, which were then added and incubated at 37 °C for 60 min. After each well's liquid had been carefully removed,
incubated for 1 h at 37 °C. The microtiter plate was rinsed three times and given room to aspirate.
After that, the plate was incubated at 37 °C for 60 min with 100 μL of HRP-avidin solution added to each well. After that, the plate was aspirated and cleaned 5 times. Each well received 90 μL of TMB substrate, and the plate was incubated for 30 min. at 37 °C in a light-protected environment.
Finally, stop solution (50 μL) was loaded, and within 5 minutes, the absorbance at 450 nm was measured spectrophotometrically.

Renal Cancer cell lines = assay: NCI five-dose testing, subpanel (MID b, selectivity); details: full-panel MG-MID / subpanel MG-MID
From the text: (§1) The log10 GI50, log10 TGI, and log10 LC50 values were subsequently calculated as the averages of the log10 values of the respective individual GI50, TGI, and LC50 measurements. Negative numbers signified the most sensitive cell lines.
(§2) One way to measure a compound’s selectivity is to divide its subpanel MID^b (in μM) by the MID^a (in μM), which is the average sensitivity of all cell lines to the test agent.
(§3) At the National Cancer Institute (NCI) in Bethesda, USA, researchers examined the anticancer potential of the target compounds under investigation using nine panels of sixty different cell lines obtained from nine different cancers that were housed in the NCI library. Following the protocols laid out by the National Cancer Institute (https://dctd.cancer.gov/data-tools-biospecimens/data (accessed on 15 March 2023 and 6 January 2024)), the screening procedures were carried out [37]. The anticancer screening was carried out at a single dose of 10^−5 M; the results obtained were expressed as growth inhibition (%).
The anti-cancer potential of the tested compounds was evaluated at the National cancer institute (NCI), Bethesda, USA, against 9 panels of 60 various cell lines derived from nine human tumours available usually at NCI library. The procedures for the screening were described in details in NCI website (dttp://www.dtp.nci.nih.gov.) and were done according to NCI protocols. […]

[1] = test system: colon HCT116 cancer cell line; assay: Cell cycle analysis, propidium iodide flow cytometry; details: for Cell cycle arrest phase: HCT116; for DNA Content G2/M Phase / DNA Content S Phase / DNA Content G0-G1 Phase: HCT116 treated with IC50 concentration; for DNA Content G2/M Phase: DMSO 8.68%; for DNA Content S Phase: DMSO 27.03%; for DNA Content G0-G1 Phase: DMSO 64.29%
Experimental: The effect of compounds 4b and 4d on the cell cycle progression of the colon HCT-116 cell line was evaluated using a Propidium Iodide Flow Cytometry Kit to measure the DNA content, as per the reported protocols [39].
Cell cycle analysis and measurement of apoptotic potential
The effect of compound 4b and 4d on cell cycle progression of colon HCT-116 cell line was evaluated using Propidium Iodide Flow Cytometry Kit to measure the DNA content according to the reported protocols. The HCT116 cells used in this work were obtained from the American Type Culture Collection. Cells were cultured in DMEM (Invitrogen/Life Technologies) supplemented with 10% FBS (Hyclone), 10 µg/ml insulin (Sigma), and 1% penicillin-streptomycin. The remaining chemicals and reagents were all from Sigma or Invitrogen. Growth media was removed, cells washed with warm PBS and aspirated. Adhered cells were detached from media by addition of 5 ml 10% trypsin/EDTA and incubated 2 minutes in the incubator. The suspended cells harvested, aspirated to a falcon tube, centrifuged at 2000 rpm for 5 minutes. Cell count performed after suspending the cells into a fresh media and stained with trypan blue, counted and used for preparation of the appropriate number of cells.

[2] = test system: Leukemia cancer cell lines; assay: NCI five-dose testing, subpanel (GI50 range, MID b, selectivity); details: for GI50: Homo sapiens; for SI: full-panel MG-MID / subpanel MG-MID, Leukemia; for MG-MID: mean activity across subpanel Leukemia
From the text: as §1, §2
(§4) At the National Cancer Institute (NCI) in Bethesda, USA, researchers examined the anticancer potential of the target compounds under investigation using nine panels of sixty different cell lines obtained from nine different cancers that were housed in the NCI library. […] The anticancer screening was carried out at a single dose of 10^−5 M; the results obtained were expressed as growth inhibition (%).
(§5) The anti-cancer potential of the tested compounds was evaluated at the National cancer institute (NCI), Bethesda, USA, against 9 panels of 60 various cell lines derived from nine human tumours available usually at NCI library. […] The anticancer screening was carried out at single dose of 10^-5 M. The results obtained as growth inhibition (%).
(§6) Cell lines were grown in Roswell Park Memorial Institute medium (RPMI) with 5% fetal bovine serum and 2% μM L-glutamine. Cancer cells are inoculated into 96 well microtiter plates in 100 μL at plating densities ranging from 5000 to 40,000 cells/well depending on the doubling time of individual cell lines. Then microtiter plates are incubated at 37 °C, 5% CO2, 95% air and 100% relative humidity for 24 h prior to the addition of the tested compounds. After 24 h, two plates of each cell line are fixed in situ with trichloroacetic acid (TCA). The tested compounds were dissolved in dimethyl sulfoxide (DMSO) and stored in the freezer prior to use. An aliquot of frozen drug concentrate is diluted to the desired concentration with complete medium containing 50 μg/mL gentamicin.
(§7) compounds were added to the microtiter plates followed by incubation for further 48 h at 37 °C, 5% CO2, 95% air and 100% relative humidity. Fixation of cancer cell lines is carried out through gentle addition of 50 μL of cold 50 %w/v TCA (final concentration, 10% TCA) then incubated for 60 min. at 4 °C. The plates are washed five times with tap water after getting rid of the supernatant and allowed to dry in air. Sulforhodamine B (SRB) solution (100 μL) at 0.4% w/v in 1% acetic

CNS Cancer cell lines = assay: NCI five-dose testing, subpanel (MID b, selectivity); details: for SI: full-panel MG-MID / subpanel MG-MID, CNS Cancer; for MG-MID: mean activity across subpanel CNS Cancer
From the text: as §1, §2, §4, §5, §6, §7

[3] = test system: Prostate Cancer cell lines; assay: as above; details: for SI: full-panel MG-MID / subpanel MG-MID, PC (prostate); for MG-MID: mean activity across subpanel PC (prostate)
From the text: as §1, §2, §3
(§8) The anti-cancer potential of the tested compounds was evaluated at the National cancer institute (NCI), Bethesda, USA, against 9 panels of 60 various cell lines derived from nine human tumours available usually at NCI library. The procedures for the screening were described in details in NCI website (dttp://www.dtp.nci.nih.gov.) and were done according to NCI protocols. The anticancer screening was carried out at single dose of 10^-5 M. The results obtained as growth inhibition (%).
as §6, §7

[4] = test system: Non-Small-Cell Lung Cancer cell lines; assay: as above; details: for SI: full-panel MG-MID / subpanel MG-MID, Non-Small-Cell Lung Cancer; for MG-MID: mean activity across subpanel Non-Small-Cell Lung Cancer
From the text: as §1, §2, §4, §5, §6, §7

Melanoma cell lines = assay: as above; details: for SI: full-panel MG-MID / subpanel MG-MID, Melanoma; for MG-MID: mean activity across subpanel Melanoma
From the text: as §1, §2, §4, §5, §6, §7

UO-31 = assay: NCI-60 screening, five-dose, SRB; assay type: cell-based, human; details: for GI50 / IC50 / LC50 (concentration killing 50% of cells): Homo sapiens
[5] = test system: Ovarian Cancer cell lines; assay: NCI five-dose testing, subpanel (MID b, selectivity); details: for SI: full-panel MG-MID / subpanel MG-MID, Ovarian Cancer; for MG-MID: mean activity across subpanel Ovarian Cancer
From the text: as §1, §2, §3, §8, §6, §7

[6] = In vitro cytotoxicity against normal cell line WI 38; assay type: cell-based; details: human, WI-38 normal cell line; for viability at 0.4 µM: WI38, 0.4uM; for viability at 1.6 µM: WI38, 1.6uM; for viability at 6.3 µM: WI38, 6.3uM; for viability at 25 µM: WI38, 25uM; for viability at 100 µM: WI38, 100uM; for IC50: ± SEM
From the text: Detailed results of cytotoxicity of compounds 4b and 4d against normal cell
Blank CC Sample No. 4b/WI38 sample no. 4d/WI38
conc. viability conc. viability

colon HCT116 cells = assay: Annexin V-FITC/PI apoptosis and necrosis assay; assay type: cell-based, human; details: HCT116 treated with IC50 concentration; for Apoptosis Late: DMSO 0.15%; for Apoptosis Early: DMSO 0.39%; for Apoptosis Total: DMSO 0.54%; for Necrosis: DMSO 1.83%
topoisomerase IIβ = topoisomerase IIβ (Homo sapiens, UniProt Q02880); assay: Topoisomerase II inhibition assay (ELISA kit of human DNA topoisomerase); details: for TOPO II fld (fold of control): HCT116, control = 1; for Topoisomerase II % Inhibition: in comparison to negative control
[7] = test system: leukemia HL-60, RPMI-8226, and colon HCT-116 cells; assay: Antiproliferative activity, IC50 range over three cell lines; assay type: cell-based; details: Homo sapiens; range over HL-60, RPMI-8226 and HCT-116
Colon Cancer cell lines = assay: NCI five-dose testing, subpanel (GI50 range, MID b, selectivity); details: for GI50: Homo sapiens; for SI: full-panel MG-MID / subpanel MG-MID, Colon Cancer; for MG-MID: mean activity across subpanel Colon Cancer
From the text: as §1, §2, §4, §5, §6, §7

Breast Cancer cell lines = assay: NCI five-dose testing, subpanel (MID b, selectivity); details: for SI: full-panel MG-MID / subpanel MG-MID, Breast Cancer; for MG-MID: mean activity across subpanel Breast Cancer
From the text: as §1, §2, §3, §8, §6, §7

Bax = assay: Relative gene expression by qRT-PCR in HCT-116; assay type: cell-based, human; details: HCT116; untreated control = 1
caspase-9 = assay: Relative gene expression by qRT-PCR in HCT-116; assay type: cell-based, human; details: HCT116; untreated control = 1
caspase-3 = assay: Relative gene expression by qRT-PCR in HCT-116; assay type: cell-based, human; details: HCT116; untreated control = 1

Chain of topoisomerase IIβ (Q02880 2-1626): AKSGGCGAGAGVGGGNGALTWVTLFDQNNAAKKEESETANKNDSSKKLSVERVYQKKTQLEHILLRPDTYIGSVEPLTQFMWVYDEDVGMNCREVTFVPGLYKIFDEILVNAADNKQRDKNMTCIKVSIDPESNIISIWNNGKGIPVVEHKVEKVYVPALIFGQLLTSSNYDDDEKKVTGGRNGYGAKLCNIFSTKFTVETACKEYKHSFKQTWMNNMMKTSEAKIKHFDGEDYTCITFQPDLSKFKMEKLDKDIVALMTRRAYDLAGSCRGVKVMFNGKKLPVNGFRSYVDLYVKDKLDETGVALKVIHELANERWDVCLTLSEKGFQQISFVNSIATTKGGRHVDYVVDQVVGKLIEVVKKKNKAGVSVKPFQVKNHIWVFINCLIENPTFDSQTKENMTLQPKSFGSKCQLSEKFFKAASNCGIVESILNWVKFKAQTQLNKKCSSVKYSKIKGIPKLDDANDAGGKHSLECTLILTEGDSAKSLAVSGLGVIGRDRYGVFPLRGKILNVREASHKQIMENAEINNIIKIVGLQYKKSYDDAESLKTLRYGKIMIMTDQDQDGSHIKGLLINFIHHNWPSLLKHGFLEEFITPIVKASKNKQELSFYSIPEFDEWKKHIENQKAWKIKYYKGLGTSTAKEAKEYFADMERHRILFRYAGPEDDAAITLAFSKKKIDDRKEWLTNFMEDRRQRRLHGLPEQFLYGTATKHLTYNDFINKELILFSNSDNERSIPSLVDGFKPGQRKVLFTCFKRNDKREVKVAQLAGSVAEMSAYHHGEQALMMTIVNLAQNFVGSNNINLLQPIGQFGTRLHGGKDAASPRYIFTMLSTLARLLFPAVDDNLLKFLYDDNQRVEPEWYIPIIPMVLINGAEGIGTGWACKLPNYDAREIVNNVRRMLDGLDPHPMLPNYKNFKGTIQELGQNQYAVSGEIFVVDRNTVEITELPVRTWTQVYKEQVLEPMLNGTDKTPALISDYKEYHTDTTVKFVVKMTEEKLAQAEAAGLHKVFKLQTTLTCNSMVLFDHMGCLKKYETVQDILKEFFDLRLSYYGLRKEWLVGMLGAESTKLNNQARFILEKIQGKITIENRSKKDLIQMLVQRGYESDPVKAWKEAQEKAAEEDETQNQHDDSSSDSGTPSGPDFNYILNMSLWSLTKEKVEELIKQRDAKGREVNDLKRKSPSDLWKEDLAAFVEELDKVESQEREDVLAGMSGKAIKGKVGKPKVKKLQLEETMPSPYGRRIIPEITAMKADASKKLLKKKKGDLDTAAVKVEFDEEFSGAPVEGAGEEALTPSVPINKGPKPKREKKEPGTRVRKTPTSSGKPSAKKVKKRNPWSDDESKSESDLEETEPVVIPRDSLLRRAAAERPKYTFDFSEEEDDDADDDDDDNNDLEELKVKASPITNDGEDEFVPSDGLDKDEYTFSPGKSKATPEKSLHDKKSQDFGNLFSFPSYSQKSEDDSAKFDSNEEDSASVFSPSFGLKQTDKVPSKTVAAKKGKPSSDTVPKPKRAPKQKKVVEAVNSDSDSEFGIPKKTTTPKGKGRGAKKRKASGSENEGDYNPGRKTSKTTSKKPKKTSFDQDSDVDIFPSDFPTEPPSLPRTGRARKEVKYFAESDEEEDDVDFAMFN

In the case of Cc1nc(SCC(=O)N2CCN(c3cc4c(cc3F)c(=O)c(C(=O)O)cn4C3CC3)CC2)sc1C(=O)/C=C/c1cccc(Cl)c1 [Compound 4b, (E)-7-(4-(2-((5-(3-(3-Chlorophenyl)acryloyl)-4-methylthiazol-2-yl)thio)acetyl)piperazin-1-yl)-1-cyclopropyl-6-fluoro-4-oxo-1,4-dihydroquinoline-3-carboxylic Acid], the “TOPO I fld (fold of control)” value (Topoisomerase I) is reported as 0.227, the “Topoisomerase I % Inhibition” value (Topoisomerase I) is reported as 77.3% and the SI (Renal Cancer cell lines) is reported as 1.5. The “Cell cycle arrest phase” value [1] was “G1 phase”, the “DNA Content G2/M Phase” value [1] was 2.92% and the “DNA Content S Phase” value [1] was 23.23%. The “DNA Content G0-G1 Phase” value [1] was 73.85%, the GI50 [2] was 0.2 to 12.9 µM and the SI [2] was 9.22. The MG-MID [2] was 7.62 µM, the SI (CNS Cancer cell lines) was 1.01 and the MG-MID (CNS Cancer cell lines) was 69.63 µM. The SI [3] was 0.70, the MG-MID [3] was 100.0 µM and the SI [4] was 0.73. The MG-MID [4] was 96.35 µM, the SI (Melanoma cell lines) was 0.95 and the MG-MID (Melanoma cell lines) was 74.08 µM. It also gave a TGI (UO-31) of 100.0 µM, a GI50 (UO-31) of over 100 µM and an IC50 (UO-31) of over 100 µM. It also gave an LC50 (concentration killing 50% of cells) (UO-31) of over 100 µM, an SI [5] of 0.77 and an MG-MID [5] of 91.67 µM. It also gave a viability at 0.4 µM [6] of 82.8%, a viability at 1.6 µM [6] of 71.8% and a viability at 6.3 µM [6] of 63.5%. It also gave a viability at 25 µM [6] of 52.9%, a viability at 100 µM [6] of 37.1% and an IC50 [6] of 26.8 ± 0.92 µM. The “Apoptosis Late” value (colon HCT116 cells) was 22.37%, the “Apoptosis Early” value (colon HCT116 cells) was 6.96% and the “Apoptosis Total” value (colon HCT116 cells) was 29.33%. The Necrosis (colon HCT116 cells) was 3.66%, the “TOPO II fld (fold of control)” value (topoisomerase IIβ) was 0.266 and the “Topoisomerase II % Inhibition” value (topoisomerase IIβ) was 73.4%. For the same compound, the IC50 [7] was 0.3 to 3.7 µM, the GI50 (Colon Cancer cell lines) was 0.3 to 15.1 µM and the SI (Colon Cancer cell lines) was 2.18. It also gave an MG-MID (Colon Cancer cell lines) of 32.16 µM, an SI (Breast Cancer cell lines) of 1.04 and an MG-MID (Breast Cancer cell lines) of 67.8 µM.

In the case of Cc1nc(SCC(=O)N2CCN(c3cc4c(cc3F)c(=O)c(C(=O)O)cn4C3CC3)CC2)sc1C(=O)/C=C/c1cccc(F)c1 [Compound 4d, (E)-1-Cyclopropyl-6-fluoro-7-(4-(2-((5-(3-(3-fluorophenyl)acryloyl)-4-methylthiazol-2-yl)thio)acetyl)piperazin-1-yl)-4-oxo-1,4-dihydroquinoline-3-carboxylic Acid], the “TOPO I fld (fold of control)” value (Topoisomerase I) is reported as 0.277, the “Topoisomerase I % Inhibition” value (Topoisomerase I) is reported as 72.3% and the SI (Renal Cancer cell lines) is reported as 1.5. For the same compound, the “Cell cycle arrest phase” value [1] was “G1 phase”, the “DNA Content G2/M Phase” value [1] was 3.75% and the “DNA Content S Phase” value [1] was 18.33%. For the same compound, the “DNA Content G0-G1 Phase” value [1] was 77.92%, the GI50 [2] was 0.19 to 3.39 µM and the SI [2] was 24.6. The MG-MID [2] was 2.9 µM, the SI (CNS Cancer cell lines) was 0.97 and the MG-MID (CNS Cancer cell lines) was 72.0 µM. For the same compound, the SI [3] was 0.70, the MG-MID [3] was 100.0 µM and the SI [4] was 0.81. For the same compound, the MG-MID [4] was 86.5 µM, the “Relative gene expression of Bax” value (Bax) was 5.58 fold and 5.577 fold and the SI (Melanoma cell lines) was 0.89. The MG-MID (Melanoma cell lines) was 79.00 µM, the TGI (UO-31) was 100.0 µM and the GI50 (UO-31) was over 100 µM. It also gave an IC50 (UO-31) of over 100 µM, an LC50 (concentration killing 50% of cells) (UO-31) of over 100 µM and an SI [5] of 0.70. The MG-MID [5] was 100 µM, the viability at 0.4 µM [6] was 83.4% and the viability at 1.6 µM [6] was 72.8%. For the same compound, the viability at 6.3 µM [6] was 64.1%, the viability at 25 µM [6] was 52.9% and the viability at 100 µM [6] was 44%. The IC50 [6] was 41.2 ± 1.42 µM, the “Apoptosis Late” value (colon HCT116 cells) was 26.29% and the “Apoptosis Early” value (colon HCT116 cells) was 11.92%. For the same compound, the “Apoptosis Total” value (colon HCT116 cells) was 38.21%, the Necrosis (colon HCT116 cells) was 3.82% and the “Relative gene expression of caspase-9” value (caspase-9) was 4.2 fold and 4.214 fold. The “TOPO II fld (fold of control)” value (topoisomerase IIβ) was 0.481, the “Topoisomerase II % Inhibition” value (topoisomerase IIβ) was 51.9% and the IC50 [7] was 0.3 to 3.7 µM. It also gave a GI50 (Colon Cancer cell lines) of 0.52 to 4.9 µM, an SI (Colon Cancer cell lines) of 2.8 and an MG-MID (Colon Cancer cell lines) of 25.3 µM. For the same compound, the “Relative gene expression of caspase-3” value (caspase-3) was 10.86 fold, the SI (Breast Cancer cell lines) was 0.99 and the MG-MID (Breast Cancer cell lines) was 71.1 µM.
